We go through 6 molecules from article PMC6691788, “Design and synthesis of phthalazine-based compounds as potent anticancer agents with potential antiangiogenic activity via VEGFR-2 inhibition” (Journal of Enzyme Inhibition and Medicinal Chemistry, 2019).

What is called IC50 is the concentration that inhibits the measured activity by half. A word on the inhibition: it is how much of the control response was suppressed. One may read the melting point as the temperature, or range, at which the solid turns liquid.

Like-named read-outs stand apart in the source and are kept apart here.

In one series the test system is VEGFR-2. As to conditions: cited from earlier work.
Another series deals with HCT-116. Put plainly: In vitro cytotoxic activity, SRB assay. It counts as cell-based. As to conditions: Homo sapiens; HCT-116, 48h. The procedure:
(§1) In addition, compounds (12a, 12b, 12c, 16b, 16c and 17b) were evaluated against a third cell line (HepG-2) These first two cell lines were selected based on the sensitivity of the previously NCI-tested derivatives towards them amongst the 60 NCI panel. The growth inhibition is expressed as the median growth inhibitory concentration (IC50) which corresponds to the concentration required for 50% inhibition of cell viability and are provided in (Table S6 in supplementary material).
(§2) 5,000 cells in fresh medium were seeded in 96-well microlitre plates and left to attach for 24h. Cells were incubated with the tested compounds at concentration range from 0,1,2.5,5,10 µg/ml and incubation was continued for48h. After 48h treatment,the cells were fixed with 50µl cold 50% trichloroacetic acid (TCA )for 1h at 4 °C. Wells were then washed 5 times with water and stained for 30 min at room temperature with 50µl of 0.4%SRB dissolved in 1% acetic acid. The wells were then washed 4 times with 1% acetic acid. The plates were air dried and the dye was solubilized with 100µl/well of 10mM tris base (pH 10.5) for 5min on a shaker (Orbital Shaker OS 20,Boeco,Germany) at 1600 rpm. The optical density (O.D.)of each well was measured spectrophotometrically at 564 nm with an enzyme linked immunosorbent assay( ELIZA) micraplate reader (Tecan Sunrise,Austria).The mean back ground absorbance was subtracted automatically and mean values for each drug concentration was calculated.
(§3) The percentage of cell survival was calculated as follows:
(§4) Survival fraction =O.D.(treated cells)/O.D.(control cells)
(§5) The IC50 value (the concentration required to produce 50% inhibition of cell growth) was calculated using sigmodial dose response curve-fitting models (GraphPad,Prizm software incorporated). Each concentration was repeated 3 times.
(The SRB assay estimates cell density from bound dye.)

The subject of another series is MCF-7. Put plainly: In vitro cytotoxic activity, SRB assay. As to conditions: Homo sapiens, MCF7; MCF-7, 48h. It is filed as cell-based. The protocol: as §1, §2, §3, §4, §5
Another series has as its system HepG-2. Put plainly: In vitro cytotoxic activity, SRB assay. It counts as cell-based. Particulars: Homo sapiens, HepG2; HepG-2, 48h. The procedure: as §1, §2, §3, §4, §5
The subject of another series is HUVEC. Put plainly: In vitro HUVEC anti-proliferative assay (alamarBlue). It counts as cell-based, human. Particulars: HUVEC proliferation, single dose 10 µM, 72 hours; for inhibition at 10 µM: Homo sapiens, read-out: % Cell inhibition. The protocol: The assay was performed at single dose concentration of 10 µM, where HUVEC umbilical vein endothelial cells, human (Life Technologies # C-003-5C) served as the cells’ source, in Medium 200 (Life Technologies # M-200-500), with large vessel endothelial supplement (LVES) (Life Technologies # A14608-01) and Pen-step (Hyclone # SV30010). AlamarBlue (Life Technologies # DAL1025) was used as the fluorescent reagent.
HUVEC cells were cultured in Medium 200 with 2% LVES and 1% Pen-strep. To perform the proliferation assay, HUVEC cells were seeded at 5000 cells/ 50µl /well in a 96-well black clear-bottom tissue culture plate. Cells were incubated at 37°C and 5% CO2 overnight to allow them to recover and reattach.
Next day cells were treated with test compounds for 72 hours. After treatment, cell proliferation was measured by Fluorescent quantitation of alamarBlue reagent. The alamarBlue assay incorporates a fluorometric/colorimetric growth indicator based on detection of metabolic activity. Specifically, resazurin, the active ingredient in the alamarBlue reagent, is blue in color and virtually non-fluorescent. Upon entering cells, resazurin is reduced to resorufin, a compound that is red in color and highly fluorescent. Continued cell growth maintains a reduced environment, therefore increasing the overall fluorescence and color of the media surrounding cells. […] To perform the alamarBlue assay, 10 µl of alamarBlue reagent was added to each well and the plate was incubated at 37°C for an additional 2 hours. Fluorescence intensity was measured at an excitation of 530 nm and an emission of 590 nm using a BioTek Synergy^TM 2 microplate reader.
Cell proliferation assays were performed in triplicate at each concentration. The fluorescent intensity data were analyzed using the computer software, Graphpad Prism. In the absence of the compound, the fluorescent intensity (Ft) in each data set was defined as 100%. In the absence of cells, the fluorescent intensity (Fb) in each data set was defined as 0%. The percent cell in the presence of each compound was calculated according to the following equation: %cell = (F-Fb)/(Ft-Fb), where F= the fluorescent intensity in the presence of the compound, Fb= the fluorescent intensity in the absence of cells, and Ft = the fluorescent intensity in the absence of the compound.

A further series has as its target T1, VEGFR-2 tyrosine kinase (Homo sapiens, UniProt P35968).
T1 construct: purchased BPS Bioscience 40301
Put plainly: In vitro VEGFR-2 tyrosine kinase assay (BPS Bioscience). It counts as biochemical. As to conditions: for IC50: 10 μM ATP/0.2 mg/ml poly-Glu-Tyr; for inhibition at 10 µM: read-out: VEGFR-2 % inhibition, 10 μM concentration. The procedure: The VEGFR tyrosine kinase assays were performed at BPS Bioscience (www.bpsbioscience.com). All the synthesised compounds representing the six series were evaluated for their ability to inhibit VEGFR-2 tyrosine kinase at single dose of 10 µM.
The VEGFR tyrosine kinase activity at single dose concentration of 10 μM was carried out by BPS Bioscience (www.bpsbioscience.com). VEGFR (BPS#40301) served as the enzyme source and Poly (Glu, Tyr) sodium salt, (4:1, Glu:Tyr) (Sigma#P7244) served as the standardized substrate & Kinase-Glo Plus Luminescence kinase assay kit (Promega#V3772). The IC50 determination was carried out where quality control testing is routinely performed on each of the targets to insure compliance to acceptable standards. ^33P-ATP was purchased from Perkin Elmer and ADP-Glo^TM was purchased from Promega. All other materials were of standard laboratory grade.
The VEGFR tyrosine kinase activity was performed using Kinase-Glo Plus luminescence kinase assay kit (Promega). It measures kinase activity by quantitating the amount of ATP remaining in solution following a kinase reaction. The luminescent signal from the assay is correlated with the amount of ATP present and is inversely correlated with the amount of kinase activity. The compounds were diluted to 100 μM in 10% DMSO and […] of the dilution was added to a […] reaction so that the final concentration of DMSO is 1% in all of reactions. All of the enzymatic reactions were conducted at 30 °C for 40 min. The 50 μl reaction mixture contains […], pH 7.4, […], 0.1 mg/ml BSA, 0.2 mg/ml Poly (Glu, Tyr) substrate, 10 μM ATP and VEGFR. After the enzymatic reaction, […] of Kinase-GloPlus Luminescence kinase assay solution (Promega) was added to each reaction and incubate the plate for 5 min at room temperature. Luminescence signal was measured using a BioTek Synergy 2 microplate reader. The protein kinase assays used to determine IC50 value were performed using ADP-GloTM assay kit from Promega which measures the generation of ADP by the protein kinase. Generation of ADP by the protein kinase reaction leads to an increase in luminescence signal in the presence of ADP-GloTM assay kit. The assay was started by incubating the reaction mixture in a 96-well plate at 30 °C for 30 min. After the 30 min incubation period, the assay was terminated by the addition of […] of ADP-GloTM Reagent (Promega). The 96 well plate was shaken and then incubated for 40 min at ambient temperature. […] of Kinase detection reagent was added, the 96-well reaction plate was then read using the ADP-Glo Luminescences Protocol on a GloMax plate reader (Promega: Catalog #E7031). Blank control was set up that included all the assay components except the addition of appropriate substrate (replace with equal volume of kinase assay buffer). The corrected activity for each protein kinase target was determined by removing the blank control value.
VEGFR activity assays were performed in duplicate at each concentration. The luminescence data were analyzed using the computer software, Graphpad Prism. The difference between luminescence intensities in the absence of VEGFR (Lut) and in the presence of VEGFR (Luc) was defined as 100% activity (Lut - Luc). […] IC50 determination for inhibitor against VEGFR was estimated by generating a graph of log inhibitor vs normalized response with variable using the Prism software.

In another series the test system is VEGFR-3. On the set-up: method as in PMID 24565910. Particulars: cited from earlier work.

T1 sequence (P35968 20-1356): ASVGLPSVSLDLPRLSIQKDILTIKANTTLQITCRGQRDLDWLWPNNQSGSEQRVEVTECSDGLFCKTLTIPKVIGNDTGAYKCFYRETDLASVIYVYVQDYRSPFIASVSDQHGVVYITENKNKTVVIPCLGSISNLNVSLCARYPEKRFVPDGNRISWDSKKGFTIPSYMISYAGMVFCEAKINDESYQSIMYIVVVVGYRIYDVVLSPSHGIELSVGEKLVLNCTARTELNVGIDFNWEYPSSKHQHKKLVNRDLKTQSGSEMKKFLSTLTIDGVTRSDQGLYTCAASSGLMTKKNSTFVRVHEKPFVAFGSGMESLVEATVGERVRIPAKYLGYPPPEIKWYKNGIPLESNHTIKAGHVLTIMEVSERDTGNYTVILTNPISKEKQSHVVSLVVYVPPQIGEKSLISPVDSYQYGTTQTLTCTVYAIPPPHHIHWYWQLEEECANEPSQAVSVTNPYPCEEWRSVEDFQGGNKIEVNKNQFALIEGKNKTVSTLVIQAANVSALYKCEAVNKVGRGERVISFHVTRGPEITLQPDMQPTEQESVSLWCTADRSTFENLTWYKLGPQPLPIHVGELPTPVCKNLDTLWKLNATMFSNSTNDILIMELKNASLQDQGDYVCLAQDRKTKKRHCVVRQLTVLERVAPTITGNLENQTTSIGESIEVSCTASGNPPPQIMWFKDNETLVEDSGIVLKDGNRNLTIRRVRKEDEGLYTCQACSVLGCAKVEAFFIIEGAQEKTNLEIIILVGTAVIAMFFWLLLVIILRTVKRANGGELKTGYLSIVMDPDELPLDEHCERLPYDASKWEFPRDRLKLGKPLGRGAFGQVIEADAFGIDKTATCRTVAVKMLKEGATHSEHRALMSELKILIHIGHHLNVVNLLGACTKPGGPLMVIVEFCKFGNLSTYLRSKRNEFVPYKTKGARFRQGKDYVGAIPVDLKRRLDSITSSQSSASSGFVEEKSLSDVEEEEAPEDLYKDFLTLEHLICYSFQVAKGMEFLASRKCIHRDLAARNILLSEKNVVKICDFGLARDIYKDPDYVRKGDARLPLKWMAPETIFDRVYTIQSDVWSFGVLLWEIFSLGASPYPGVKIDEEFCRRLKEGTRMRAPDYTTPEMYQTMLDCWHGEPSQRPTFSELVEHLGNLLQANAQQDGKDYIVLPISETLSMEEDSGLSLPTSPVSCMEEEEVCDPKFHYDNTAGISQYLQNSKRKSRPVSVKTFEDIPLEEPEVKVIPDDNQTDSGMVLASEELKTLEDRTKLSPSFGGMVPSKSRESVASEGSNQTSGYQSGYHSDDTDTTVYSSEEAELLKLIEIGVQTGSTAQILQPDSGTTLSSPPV

On to `c1ccc(Cc2cnc(N3CCN(c4ncnc5ccccc45)CC3)nc2)cc1` [(VI)], for which, in the series with VEGFR-2 (Figure 1, known VEGFR-2 kinase inhibitors, read-out: IC50), the IC50 is 0.0034 µM.

Take `O=C(Nc1ccc(Cl)cc1)Nc1ccc(Nc2nnc(Cl)c3ccccc23)cc1` [Compound 12b, 1–(4-Chlorophenyl)-3–(4-(4-chlorophthalazin-1-ylamino)phenyl)urea]: the melting point is 236 to 238 °C. Moreover, in the series with HCT-116, the IC50 was found to be 174 µM. Half-maximal inhibition in the series with MCF-7 (IC50) was put at 155 µM. In addition, half-maximal inhibition in the series on HepG-2 (IC50) was put at 174 µM. Further, in the series on HUVEC, the “% Cell growth” value was 20.17% and the inhibition at 10 µM worked out at 79.8%. On VEGFR-2 tyrosine kinase, the IC50 turned out to be 4.4 µM and the inhibition at 10 µM was 70%.

`O=C(Nc1ccc(Nc2nnc(Cl)c3ccccc23)cc1)Nc1ccc(Cl)c(C(F)(F)F)c1` [Compound 12c, 1–(4-Chloro-3-(trifluoromethyl)phenyl)-3–(4-(4-chlorophthalazin-1-ylamino)phenyl)-urea] returned a melting point of 187 to 189 °C. Besides, the IC50 in the series on HCT-116 stood at 724 µM. Further, in the series with MCF-7, the IC50 was more than 1000 µM. In the series on HepG-2, this molecule displayed an IC50 of more than 1000 µM. Moreover, in the series on HUVEC, the “% Cell growth” value is 27.42% and the inhibition at 10 µM turned out to be 72.6%. Besides, on VEGFR-2 tyrosine kinase, the IC50 was 2.7 µM and the inhibition at 10 µM came to 78%.

`Cc1cccc(OCc2nnc(Nc3ccc(Cl)cc3)c3ccccc23)c1` [Compound 17b, N-(4-Chlorophenyl)-4-(m-tolyloxymethyl)phthalazin-1-amine] had a melting point of 193 to 195 °C. In addition, the IC50 in the series with HCT-116 is 38 µM. Moreover, the IC50 in the series on MCF-7 was found to be 13.5 µM. In addition, the midpoint of inhibition with HepG-2, the IC50, lay at 39 µM. Also, on VEGFR-2 tyrosine kinase, the inhibition at 10 µM is 15%.

For `CNC(=O)c1cc(COc2nnc(Nc3ccc(Cl)cc3)c3ccoc23)ccn1` [Telatinib (V), telatinib], the figures for the IC50 in the series on VEGFR-3 and in the series with VEGFR-2 (read-out: IC50 VEGFR-2) were 0.004 µM and 0.006 µM, respectively.

As for `Clc1ccc(Nc2nnc(Cc3ccncc3)c3ccccc23)cc1` [Vatalanib (PTK-787) (I), vatalanib], the IC50 with VEGFR-2 (read-out: IC50 VEGFR-2) is […].
